Ends that are not written are not given here.

Sequence of LOO10-GFP (P42212 whole entry S30R/Y39N/F64L/S65T/F99S/N105T/Y145F/M153T/V163A/I171V, form open): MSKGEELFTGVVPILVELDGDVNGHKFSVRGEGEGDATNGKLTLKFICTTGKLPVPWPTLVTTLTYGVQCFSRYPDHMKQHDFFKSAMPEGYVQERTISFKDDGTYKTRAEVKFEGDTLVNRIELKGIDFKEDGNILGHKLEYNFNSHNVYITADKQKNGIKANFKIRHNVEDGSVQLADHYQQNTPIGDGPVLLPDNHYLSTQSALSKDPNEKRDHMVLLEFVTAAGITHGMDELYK

This experiment has as its target LOO10-GFP (Aequorea victoria, UniProt P42212, S30R/Y39N/F64L/S65T/F99S/N105T/Y145F/M153T/V163A/I171V, form not given). It is filed as binding. Particulars: read-out: Kd (dissociation constant between s10 peptide and LOO10-GFP); 50 nM LOO10-GFP, 0-2500 nM peptide, assay buffer pH 8, overnight 4°C, read at 25°C; 390ex/506em (WT, H199Y) or 495ex/520em (T203Y, H199Y/T203Y); quadratic fit; 3 independent measurements. The protocol: Fluorescence of each sample was measured at 390/506 nm for T203 variants and at 495/520 nm for Y203 variants, at 25°C, excitation slit 12 nm, emission slit 20 nm and 10s integration time. The affinity experiments were performed in 3 independent replicas for each peptide variant. […] All fits were performed in OriginPro 2017.
What is called Kd is the constant that tells how readily two partners part at equilibrium. For the sequence NYYLSYQTVLS [H199Y/T203Y], the Kd turned out to be 32.6 ± 6.3 nM. Turning to NYYLSTQTVLS [H199Y], the Kd was 53.4 ± 0.4 nM. As for NHYLSYQTVLS [T203Y], the Kd was found to be 152 ± 47 nM.

As for NHYLSTQTVLS [WT], the Kd amounted to 280 ± 83 nM.
